# How the values were obtained:
# [1] = molecular target: T1, 20S proteasome β1 subunit (Homo sapiens, UniProt P28072+Q99436); test: Proteasome-Glo Cell-Based assay in K562 cells, β1 subunit; details: 2 h incubation
# T1 construct: endogenous in cells; host or cells: K562
# Procedure: (§1) Proteasome-Glo™ Cell-Based assay kit (Promega, USA) was used to determine the activity of the target compound against the 20S proteasome. Human chronic myeloid leukemia cell line (K562, 6000 cells/well) was inoculated into the 384 well plate in 20 μL/well. The cells were then equilibrated at 37° C., 5% CO2 for 2 hours. Each 384 well plate was set with the mock group and treatment group, and each well of the treatment group was added with 5 μL of the compound solution with the final concentration of 40 μM, 13.3 μM, 4.44 μM, 1.48 μM, 0.49 μM, 0.16 μM, 0.055 μM, 0.0183 μM, […], 0.0061 μM. The cells was incubated with the drugs for 2 hours at 37° C., 5% CO2 before adding 25 μL of corresponding Proteasome-Glo™ Cell-Based reagent per well. The relative luminescence unit (RLU) was measured by using Multimode Microplate Reader Varioskan Flash (Thermo Scientific, USA) after 15 min and compared with the RLU of the control group. SigmaPlot 10.0 software was used to calculate IC50 value.
# [2] = tested on: human multiple myeloma RPMI 8226; test: Pharmacodynamic study, RPMI 8226 subcutaneous xenograft; type: in vivo, female NOD/SCID mice; details: BIW, tail vein, day of the last administration; for Tumor volume (x ± S): in mm³ (unit assumed)
# Procedure: The anti-tumor effect in vivo was studied by using the tumor animal model obtained by subcutaneous xenotransplantation of cell lines into female NOD/SCID mice (purchased from Sipeifu Biotechnology Co., Ltd.).
# RPMI 8226 cells were subcutaneously inoculated into NOD/SCID mice, and human multiple myeloma subcutaneously transplanted tumor model was successfully established 9 days after inoculating the cells. The test was divided into vehicle (0.3 mL DMSO, 0.27 mL Tween-80, 2.43 mL normal saline) control group, compound 30 low-dose group (20 mg/kg), compound 30 medium-dose group (30 mg/kg), compound 30 high-dose group (40 mg/kg), compound 39 low-dose group (5 mg/kg), compound 39 medium-dose group (10 mg/kg), and compound 39 high-dose group (15 mg/kg), and bortezomib (API purchased from Yangtze River Pharmaceutical) was used as the positive control group (0.5 mg/kg); 5 tumor-bearing mice established above in each group were administered by tail vein twice a week for nine times in total. The long diameter a (mm) of the tumor and the short diameter b (mm) of the tumor perpendicular to the long diameter were measured with digital electronic caliper twice a week. The calculation formula of tumor volume was: TV=ab^2/2; and the calculation formula of relative tumor volume was: RTV=Vt/Vo, Vo was the tumor volume measured when the mice in each group were divided into cages and administered for the first time (d1), and Vt was the tumor volume measured at the last administration. The animals were sacrificed 31 days (d22) after inoculation of RPMI 8226 cells, and weighed. The tumor mass was dissected and weighed, and the tumor inhibition rate was calculated according to the following formula: […]
# PC3 = test: MTT antitumor spectrum, PC3; type: cell-based; details: Homo sapiens, PC-3, 72 h
# Procedure: (§2) The activity of compound 30 was evaluated by MTT method against seven tumor cell models, A549, A375, HCT116, MDA-MB-231, HepG2, PC3 and MCF-7. All cells used in the study were prepared at a concentration of 3.5×10^3 cells/mL, and each […] cell suspension was inoculated on a 96-well microtiter plate for 24 hours (37° C., 5% CO2). Then different concentrations of compound 30 were added, incubated for 72 hours; and for the control group, equivalent concentrations of DMSO (final concentration 0.5%) were added. The number of viable cells was measured by MTT (3-(4,5-dimethylthiazol-2-yl)-diphenyl tetrazolium bromide) method, and the OD value at 492/620 nm was recorded. The IC50 value was calculated by Prism-Graphpad software based on the results of triplicate experiments.
# [3] = tested on: colorectal cancer cell line HCT116; test: CellTiter-Glo tumor cell proliferation, HCT116; type: cell-based, human; details: Homo sapiens, HCT-116; CellTiter-Glo, 72 h
# Outline: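 Cells seeded at 2×10^4/mL, grown 24 h at 37° C, 5% CO2, then treated in triplicate with medium-diluted compound for 72 h. CellTiter-Glo luminescence read after 20 min at 37° C; inhibition versus untreated control RLU, IC50 calculated.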
# MCF-7 = test: MTT antitumor spectrum, MCF-7; type: cell-based; details: Homo sapiens, MCF7, 72 h
# Procedure: as §2
# A375 = test: MTT antitumor spectrum, A375; type: cell-based; details: Homo sapiens, A-375, 72 h
# Procedure: as §2
# [4] = molecular target: T2, 20S proteasome β5 subunit (Homo sapiens, UniProt P20618+P28074); test: Proteasome-Glo Cell-Based assay in K562 cells, β5 subunit; details: 2 h incubation
# T2 construct: endogenous in cells; host or cells: K562
# Procedure: as §1
structure (smiles),measurement,setting,value
"CC(C)C[C@H](NC(=O)Cn1nc(-c2cccc(OCCN3CCOCC3)c2)cc1-c1ccccc1)B(O)O.Cl [Compound 30, (R)-(3-methyl-1-(2-(3-(3-(2-morpholinoethoxy)phenyl)-5-phenyl-1H-pyrazol-1-yl)-acetamido)butyl)boronic acid hydrochloride]",IC50,[1],2040 nM
same,Relative tumor volume (x ± S),[2]; 20 mg/kg,2.57 ± 0.61
same,T/C (%),[2]; 20 mg/kg,27.55%
same,TGI (%),[2]; 20 mg/kg,72.45%
same,Tumor volume (x ± S),[2]; 20 mg/kg,267.27 ± 77.46
same,Relative tumor volume (x ± S),[2]; 30 mg/kg,1.63 ± 0.32
same,T/C (%),[2]; 30 mg/kg,17.47%
same,TGI (%),[2]; 30 mg/kg,82.53%
same,Tumor volume (x ± S),[2]; 30 mg/kg,147.56 ± 33.02
same,Relative tumor volume (x ± S),[2]; 40 mg/kg,0.74 ± 0.12
same,T/C (%),[2]; 40 mg/kg,7.93%
same,TGI (%),[2]; 40 mg/kg,92.07%
same,Tumor volume (x ± S),[2]; 40 mg/kg,72.06 ± 13.62
same,IC50,PC3,820 nM
same,IC50,[3],630 nM
same,IC50,MCF-7,690 nM
same,IC50,A375,820 nM
same,IC50,[4],400 nM
"CC(C)C[C@H](NC(=O)Cn1nc(-c2cccc(OCCN3CCN(c4ccccc4)CC3)c2)cc1-c1ccccc1)B(O)O.Cl [Compound 39, (R)-(3-methyl-1-(2-(5-phenyl-3-(3-(2-(4-phenylpiperazin-1-yl)ethoxy)phenyl)-1H-pyrazol-1-yl)acetamido)butyl)boronic acid hydrochloride]",Relative tumor volume (x ± S),[2]; 5 mg/kg,1.51 ± 0.38
same,T/C (%),[2]; 5 mg/kg,16.18%
same,TGI (%),[2]; 5 mg/kg,83.82%
same,Tumor volume (x ± S),[2]; 5 mg/kg,177.55 ± 51.28
same,Relative tumor volume (x ± S),[2]; 10 mg/kg,0.62 ± 0.28
same,T/C (%),[2]; 10 mg/kg,6.65%
same,TGI (%),[2]; 10 mg/kg,93.35%
same,Tumor volume (x ± S),[2]; 10 mg/kg,75.06 ± 19.64
same,Relative tumor volume (x ± S),[2]; 15 mg/kg,0.36 ± 0.02
same,T/C (%),[2]; 15 mg/kg,3.86%
same,TGI (%),[2]; 15 mg/kg,96.14%
same,Tumor volume (x ± S),[2]; 15 mg/kg,21.79 ± 3.50
same,IC50,[3],84 nM
same,IC50,[4],200 nM
